Data reported in patent US8057990B2, “Screening method” (Takeda Pharmaceutical Company Limited, priority 2005, dated 2011).

Columns and labels:
human GPR30 [1] = target: T1, human GPR30 (Homo sapiens, UniProt Q99527, P21A/Q20H); details: human GPR30 expression CHO cells; tacrine 0.67-67 μM; Fluo 3-AM
Description: 200 μl of each type of cells was planted in each well of a 96-well plate for FLIPR (Black plate clear bottom, Coster) using an 8-channel pipette (3.0×10^4 cells/200 μl/well) and cultured in a 5% CO2 incubator at 37° C. overnight (hereinafter, referred to as the “cell plate”) before use. 20 ml of H/HBSS, 200 μl of 250 mM Probenecid, and 200 μl of fetal bovine serum (FBS) were mixed. 2 vials (50 μg) of Fluo 3-AM (Dojindo Laboratories) were lysed in […] of dimethylsulfoxide and 40 μl of 20% Pluronic acid (Molecular Probes), and the resultant substance was added to H/HBSS-Probenecid-FBS and mixed. Then, the resultant mixture was divided into units of 100 μl and put to each well of the cell plate deprived of the culture fluid using an 8-channel pipette, and incubated in a 5% CO2 incubator at 37° C. for 1 hour (colorant loading). 8 μl of a tacrine solution (Aldrich Chemical Company) of various concentrations was added to 259 μl of H/HBSS containing 2.5 mM Probenecid, 0.1% CHAPS and 0.1% BSA, and diluted. […] The cell plate and the sample plate were set in an FLIPR (501 of sample was transferred from the sample plate to the cell plate by the FLIPR), and a change of the fluorescent intensity was measured over-time. Thus, the intracellular calcium ion concentration increase activity was measured.

rat GPR30 = rat GPR30 (Rattus norvegicus, UniProt O08878, S320N); details: rat GPR30 expression CHO cells; tacrine 0.67-67 μM; Fluo 3-AM
Description: The plasmid pAK-rGPR30 was transduced by electroporation into CHO/dhfr^− cells (American Type Culture Collection) in the method described in REFERENCE EXAMPLE 1, and transformed CHO cells expressing rat GPR30 (hereinafter, referred to simply as “rat GPR30 cells”) at a high ratio were selected.
200 μl of each type of cells was planted in each well of a 96-well plate for FLIPR (Black plate clear bottom, Coster) using an 8-channel pipette (3.0×10^4 cells/200 μl/well) and cultured in a 5% CO2 incubator at 37° C. overnight (hereinafter, referred to as the “cell plate”) before use. 20 ml of H/HBSS, 200 μl of 250 mM Probenecid, and 200 μl of fetal bovine serum (FBS) were mixed. 2 vials (50 μg) of Fluo 3-AM (Dojindo Laboratories) were lysed in […] of dimethylsulfoxide and 40 μl of 20% Pluronic acid (Molecular Probes), and the resultant substance was added to H/HBSS-Probenecid-FBS and mixed. […] The cell plate and the sample plate were set in an FLIPR (501 of sample was transferred from the sample plate to the cell plate by the FLIPR), and a change of the fluorescent intensity was measured over-time. Thus, the intracellular calcium ion concentration increase activity was measured.

human GPR30 [2] = target: T1, human GPR30; details: GPR30 expression HeLa cells; tacrine 100 μM; 4 hours
Description: (§1) Separately, a reporter plasmid of pSRE-Luc (Invitrogen) ligated with a luciferase gene as a reporter at a downstream position of a serum response element (SRE), and expression vector plasmids for human GαoA, human Gβ1 and human Gγ2, which are each a kind of G proteins, were prepared in substantially the same manner. HeLa cells were used as host cells for transfecting the G protein-coupled receptor protein expression plasmid pAK-hGPR30 and the reporter plasmids. The cells were planted on a 384-well assay plate (COSTAR 3704) at a ratio of 4000 cells/well in a culture volume of 25 μl, and incubated overnight. As the medium, DMEM (Invitrogen) supplemented with 10% fetal bovine serum and 1% MEM non-essential amino acids solution (DMEM/NEAA) was used. Each plasmid was diluted to a concentration of 240 ng/μl. Plasmids were added to 250 μl of Opti-MEM-I (Invitrogen) at a ratio of 1 μl of pAK-hGPR30, 9 μl of the reporter plasmid, and 1 μl of each of the G protein expression plasmids for GαoA, Gβ1 and Gγ2. […] After the cells were lysed and thoroughly mixed with the substrate, the chemiluminescence level corresponding to the expression induction level of the reporter gene in each well was measured on a plate reader (EnVision™, Perkin Elmer).

[3] = system: HeLa cells not expressing human GPR30; details: pAKKO-1.11H-transfected control HeLa cells; tacrine 100 μM; 4 hours
Description: as §1

T1 sequence (Q99527 whole entry Q20H/P21A): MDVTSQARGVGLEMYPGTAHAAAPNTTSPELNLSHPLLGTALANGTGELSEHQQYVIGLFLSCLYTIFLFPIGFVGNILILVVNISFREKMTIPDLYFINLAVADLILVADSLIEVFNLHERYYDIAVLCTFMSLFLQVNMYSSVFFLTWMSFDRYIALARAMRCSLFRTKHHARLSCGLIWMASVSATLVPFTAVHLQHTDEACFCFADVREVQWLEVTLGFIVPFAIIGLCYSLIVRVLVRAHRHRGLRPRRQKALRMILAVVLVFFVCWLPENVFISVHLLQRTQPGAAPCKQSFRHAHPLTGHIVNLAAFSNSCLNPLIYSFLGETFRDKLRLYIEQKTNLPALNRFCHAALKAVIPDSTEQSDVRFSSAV
rat GPR30, sequence (O08878 whole entry S320N): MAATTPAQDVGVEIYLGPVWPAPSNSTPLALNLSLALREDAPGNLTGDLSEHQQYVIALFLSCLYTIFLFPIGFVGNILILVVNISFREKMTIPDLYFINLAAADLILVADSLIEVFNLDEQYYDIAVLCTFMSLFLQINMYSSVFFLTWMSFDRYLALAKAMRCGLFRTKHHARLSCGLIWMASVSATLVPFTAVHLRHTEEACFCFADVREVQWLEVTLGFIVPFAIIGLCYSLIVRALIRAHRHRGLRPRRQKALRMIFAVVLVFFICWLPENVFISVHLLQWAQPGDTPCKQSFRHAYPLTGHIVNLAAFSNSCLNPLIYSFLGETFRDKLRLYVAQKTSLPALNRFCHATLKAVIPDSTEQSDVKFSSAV

luciferase activity (pSRE-Luc reporter) (human GPR30 [2]): significant increase
Compound: Nc1c2c(nc3ccccc13)CCCC2 [tacrine, 1,2,3,4-tetrahydro-9-acridinamine]
intracellular calcium ion concentration (change of fluorescent intensity, FLIPR) (human GPR30 [1]): increased in a concentration-depending manner
intracellular calcium ion concentration (change of fluorescent intensity, FLIPR) (rat GPR30): increased in a concentration-depending manner
luciferase activity (pSRE-Luc reporter) [3]: no significant activity increase
